Results on three molecules are retold here after US6166290A, “Glutathione-S-conjugate transport in plants” (The Trustees of the University of Pennsylvania, priority 1997, dated 2000).

The subject of one experiment is DTY165 cells. In words: Growth inhibition of DTY165 (wild type) cells by CDNB. As to conditions: Saccharomyces cerevisiae, 24 hours, read-out: diminution of optical density of culture. The format is cell-based. As to the method: (§1) FIGS. 1A-1B are a series of graphs depicting differential sensitivities of DYT165 cells (wild type, FIG. 1A) and DTY167 cells (ycf1Δ mutant, FIG. 1B) to growth inhibition by 1-chloro-2,4-dinitrobenzene (CDNB). Cells were grown at 30° C. for 24 hours to an OD600 nm of approximately 1.4 in YPD medium before inoculation of aliquots into 15 ml volumes of the same medium containing 0-60 μM CDNB. OD600 nm was measured at the times indicated.
(§2) Two strains of S. cerevisiae were used in these studies: DTY165 (MATα ura3-52 his6 leu2-3,-112 his3-Δ200 trp1-901 lys2-801 suc2-Δ) and the isogenic ycf1Δ mutant strain, DTY167 (MATα ura 3-52 his6 leu2-3,-112 his3-Δ200 trp 1-901 lys2-801 suc2-Δ, ycf1::hisG). The strains were routinely grown in rich (YPD) medium, or, when transformed with plasmid containing functional YCF1 gene, in synthetic complete medium (Sherman et al., 1983, Methods in Yeast Genetics, Cold Spring Harbor Laboratory, New York) or AHC medium (Kim et al., 1994, supra) lacking the appropriate amino acids. Escherichia coli strains XL1-blue (Stratagene) and DH11S were employed for the construction and maintenance of plasmid stocks (Ausubel et al., 1987, Current Protocols in Molecular Biology, Wiley, New York).
(§3) The isogenic wild type strain DTY165 and the ycf1Δ mutant strain, DTY167, were indistinguishable during growth in YPD medium lacking CDNB; both strains grew at the same rate after a brief lag. However, the addition of CDNB to the culture medium caused a greater retardation of the growth of DTY167 cells (FIG. 1B) than DTY165 cells (FIG. 1A). […] The optical densities of the DTY167 cultures were diminished by 65, 82, 85, and 91% by 40, 50, 60, and 70 μM CDNB, respectively, after 24 hours of incubation (FIG. 1B), whereas the corresponding diminutions for the DTY165 cultures were 14, 31, 59, and 92% (FIG. 1A). The increase in sensitivity to CDNB conferred by deletion of the YCF1 gene was similar to that seen with cadmium.

A further experiment relates to DTY167 cells. In words: Growth inhibition of DTY167 (ycf1Δ mutant) cells by CDNB. As to conditions: Saccharomyces cerevisiae, 24 hours, read-out: diminution of optical density of culture. The format is cell-based. On the procedure:
as §1, §2, §3

Experiment [1] concerns the target T1, YCF1 (vacuolar membrane vesicles purified from DTY165 cells) (Saccharomyces cerevisiae, UniProt P39109).
T1 construct: endogenous in cells; host or cells: S. cerevisiae DTY165 (wild type YCF1), vacuolar membrane vesicles
In words: [3H]DNP-GS uptake by vacuolar membrane vesicles purified from DTY165 cells. It is filed as biochemical. The note with it: 24 h, read-out: increase of [3H]DNP-GS uptake into vesicles from pretreated cells. As to the method: For the routine preparation of vacuolar membrane vesicles, 15 ml of stationary phase cultures of DTY165 or DTY167 were diluted into 1-liter volumes of fresh YPD medium, grown for 24 hours at 30° C. to an OD600 nm of approximately 0.8 and collected by centrifugation. After washing with distilled water, the cells were converted to spheroplasts with Zymolyase 20T (ICN) (Kim et al., 1994, supra) and intact vacuoles were isolated by flotation centrifugation of spheroplast lysates on Ficoll 400 step gradients as described by Roberts et al. (1991, Methods. Enzymol. 194:644-661). Both the spheroplast lysis buffer and Ficoll gradients contained 2 mg/ml bovine serum albumin, 1 μg/ml aprotinin, 1 μg/ml leupeptin, 1 μg/ml pepstatin, and 1 mM PMSF to minimize proteolysis. The resulting vacuole fraction was vesiculated in 5 mM MgCl2, 25 mM KCl, 10 mM Tris-Mes (pH 6.9) containing 2 mg/ml bovine serum albumin, 1 μg/ml aprotinin, 1 μg/ml leupeptin, 1 μg/ml pepstatin, and 1 mM PMSF, pelleted by centrifugation at 37,000× g for 25 min, and resuspended in suspension medium (1.1 M glycerol, 2 mM dithiothreitol, 1 mM Tris-EGTA, 2 mg/ml bovine serum albumin, 1 μg/ml aprotinin, 1 μg/ml leupeptin, 1 μg/ml pepstatin, 1 mM PMSF, 5 mM Tris-Mes, pH 7.6) (Kim et al., 1995, J. Biol. Chem. 270:2630-2635).
Unless otherwise indicated, [^3 H]DNP-GS uptake was measured at 25° C. in 200 μl reaction volumes containing 3 mM ATP, 3 mM MgSO4, 5 μM gramicidin-D, 10 mM creatine phosphate, 16 units/ml creatine kinase, 50 mM KC 1, 1 mg/ml bovine serum albumin, 400 mM sorbitol, 25 mM Tris-Mes (pH 8.0), and 66.2 μM [^3 H]DNP-GS (8.7 mCi/mmol) (Li et al., 1995, supra). […] Uptake was initiated by the addition of vacuolar membrane vesicles (10-15 μg of membrane protein), brief mixing of the samples on a vortex mixer and uptake was then allowed to proceed for 1-60 minutes. Uptake was terminated by the addition of 1 ml of ice-cold wash medium (400 mM sorbitol, 3 mM Tris-Mes, pH 8.0) and vacuum filtration of the suspension through prewetted Millipore HA cellulose nitrate membrane filters (pore diameter, 0.45 μm). The filters were rinsed twice with 1 ml of ice-cold wash medium and air-dried, and radioactivity was determined by liquid scintillation counting in BCS mixture (Amersham Corp.). Nonenergized [^3 H]DNP-GS uptake and extravesicular solution trapped on the filters were enumerated by the same procedure except that ATP and Mg^2 +were omitted from the uptake medium.

In experiment [2] the target is T1, YCF1 (vacuolar membrane vesicles purified from DTY165 cells). In words: biochemical. The format is biochemical. The note with it: 24 h, read-out: increase of 109Cd.GS2 uptake into vesicles from pretreated cells. On the procedure: In experiments involving cadmium transport, dithiothreitol and EGTA were removed from the suspension medium to prevent the attenuation of YCF1-dependent Cd^2+ transport otherwise exerted by these compounds. Vesiculated vacuolar membranes were subjected to three cycles of 50-fold dilution into simplified suspension medium (1.1 M glycerol, 5 mM Tris-Mes, pH 8.0), centrifugation at 100,000× g for 35 minutes and resuspension in the same medium before use.
Singly radiolabeled ^109 Cd.GSn and doubly radio-labeled ^109 Cd[^3 H].GS^n complexes were prepared by sequential gel-filtrationand anion-exchange chromatography of the reaction products generated by incubating 20 mM ^109 CdSO4 (78.4 mCi/mmol) with 40 mM GSH or 40 mM [^3 H]GSH (240 mCi/mmol) in 15 ml 10 mM phosphate buffer (pH 8.0) containing 150 mM KNO3 at 45° C. for 24 hours. For gel-filtration, 2 ml aliquots of the reaction mixture were applied to a column (40×1.5 cm ID) packed with water-equilibrated Sephadex G-1 5, eluted with deionized water and ^109 Cd and/or ^3 H in the fractions was measured by liquid scintillation counting. The fractions encompassed by each of the two ^109 Cd.GSn peaks identified were pooled, lyophilized and redissolved in 4 ml of loading buffer (5 mM Tris-Mes, pH 8.0). For anion-exchange chromatography, 0.5 ml aliquots of the resuspended lyophilizates from gel-filtration chromatography were applied to a Mono-Q HR5/5 column (Pharmacia) equilibrated with the same buffer. Elution was with a linear gradient of NaCl (0.5 ml/minute; 0-500 mM) dissolved in loading buffer. The individual fractions corresponding to the major peaks of ^109 Cd obtained from the Mono-Q column (one each for the peaks resolved by gel-filtration chromatography) were pooled, lyophilized and resuspended in 4 ml deionized water after liquid scintillation counting.
MgATP-energized, uncoupler-insensitive ^109 Cd^2+ uptake by vacuolar membrane vesicles was measured at 25° C. in 200 μl reaction volumes containing 3 mM ATP, 3 mM MgSO4, 5 μM gramicidin-D, 10 mM creatine phosphate, 16 units/ml creatine kinase, 50 mM KCl, 400 mM sorbitol, 25 mM Tris-Mes (pH 8.0) and the indicated concentrations of ^109 CdSO4, GSH or ^109 Cd- and/or ^3 H-labeled purified Cd.GSn complexes as described herein except that the wash media contained 100 μM CdSO4 in addition to sorbitol (400 mM) and Tris-Mes (3 mM, pH 8.0).

Experiment [3] concerns endogenous GS-X pump of plant vacuolar membranes. The note with it: read-out: Km for transport by endogenous plant vacuolar GS-X pump; cited from earlier work.
Another experiment addresses T2, AtMRP1 (Arabidopsis thaliana, UniProt Q9C8G9).
T2 construct: S. cerevisiae DTY168 (ycf1 null) vacuolar-enriched membrane vesicles
In words: AtMRP1-dependent uptake by membrane vesicles from pYES3-AtMRP1-transformed DTY168 cells. The format is biochemical. Also on record: rate of C3G-GS uptake: unit not given here. The note with it: 50 μM. On the procedure: S. cerevisiae strain DTY168 (MATα his6, leu2-3, -112, ura3-52 ycf1::hisG) was transformed with pYES3-AtMRP1 or empty vector lacking the AtMRP1 insert (pYES3) by the LiOAc/PEG method (Giest et al., 1991, Yeast 7:253-263) and selected for uracil prototrophy by plating on AHC medium containing tryptophan (Kim et al., 1994, supra).
For the preparation of membrane vesicles, 15 ml volumes of stationary phase cultures of the transformants were diluted into 1 L of fresh AHC medium and grown to an OD600 nm of about 1.2. Membrane vesicles were purified as described herein and in Kim et al. (1995, supra).
[…] μl reaction volumes containing 3 mM ATP, 3 mM MgSO4, 5 μM gramicidin-D, 10 mM creatine phosphate, 16 units/ml creatine kinase, 50 mM KCl, 1 mg/ml BSA, 400 mM sorbitol, 25 mM Tris-Mes ([…]).
(§4) Cells were grown and vacuolar membrane-enriched vesicles were prepared as described (Kim et al., 1995, J Biol. Chem. 270:2630-2635-). […] Uptake was terminated by the addition of 1 ml ice-cold wash medium (400 mM sorbitol/3 mM Tris-Mes, pH 8.0) and vacuum filtration of the suspension through prewetted Millipore HA cellulose nitrate filters (pore size 0.45 μm). The filters were rinsed twice with wash medium, and the retained radioactivity was determined by liquid scintillation counting. Nonenergized uptake was estimated by the same procedure except that ATP was omitted from the uptake medium.

Another experiment addresses T3, AtMRP2 (Arabidopsis thaliana, UniProt Q42093).
T3 construct: S. cerevisiae DTY168 (ycf1 null) vacuolar-enriched membrane vesicles
In words: AtMRP2-dependent uptake by membrane vesicles from pYES3-AtMRP2-transformed DTY168 cells. It is filed as biochemical. The note with it: 50 μM. As to the method: as §4
Membranes from DTY168/pYES3-AtMRP2 cells were incubated for 10 minutes in standard uptake medium containing 61.3 μM [^3 H]DNP-GS after which time 200 mM glucose and 50 units/ml hexokinase (Type F-300 from baker's yeast) were added. […] Control samples were treated identically except that no additions were made after the initial 10 minute incubation period.

In experiment [4] the test system is vacuolar GS-X pump (vacuolar membrane vesicles, V. radiata hypocotyls). In words: GS-conjugate uptake by vacuolar membrane vesicles from etiolated hypocotyls of V. radiata. It is filed as biochemical, Vigna radiata. The note with it: V. radiata. On the procedure: Values shown are means ±SE (n=3).
Vacuolar membrane vesicles were purified from etiolated hypocotyls of V. radiata cv.
Unless otherwise indicated, [^3 H]medicarpin or [3H]medicarpin-GS uptake was measured at 25° C. in 200 μl reaction volumes containing 3 mM ATP, 3 mM MgSO4, 10 mM creatine phosphate, 16 U/ml creatine kinase, 50 mM KCl, 0.1% (w/v) BSA, 400 mM sorbitol and 25 mM Tris-Mes buffer, pH 8.0. Uptake was initiated by the addition of 12 μl membrane vesicles (30-40 μg protein) and brief mixing of the samples on a vortex mixer. Uptake was terminated by the addition of 1 ml ice-cold wash medium (400 mM sorbitol, 3 mM Tris-Mes, pH 8.0) and vacuum filtration of the suspension through prewetted HA cellulose nitrate filters (pore diameter 0.45 μm). The filters were rinsed twice with a 1 ml ice-cold wash medium, air-dried and radioactivity was determined by liquid scintillation counting.

Experiment [5] deals with vacuolar GS-X pump (vacuolar membrane vesicles, Z. mays roots). In words: GS-conjugate uptake by vacuolar membrane vesicles from roots of Z. mays. It is filed as biochemical, Zea mays.
For experiment [6], the system named is vacuolar GS-X pump (vacuolar membrane vesicles, V. radiata hypocotyls). The note with it: cited from earlier work.
The mark [7] stands for this setting: read-out: Km for MgATP-dependent, uncoupler-insensitive uptake.

T1 sequence (P39109 whole entry): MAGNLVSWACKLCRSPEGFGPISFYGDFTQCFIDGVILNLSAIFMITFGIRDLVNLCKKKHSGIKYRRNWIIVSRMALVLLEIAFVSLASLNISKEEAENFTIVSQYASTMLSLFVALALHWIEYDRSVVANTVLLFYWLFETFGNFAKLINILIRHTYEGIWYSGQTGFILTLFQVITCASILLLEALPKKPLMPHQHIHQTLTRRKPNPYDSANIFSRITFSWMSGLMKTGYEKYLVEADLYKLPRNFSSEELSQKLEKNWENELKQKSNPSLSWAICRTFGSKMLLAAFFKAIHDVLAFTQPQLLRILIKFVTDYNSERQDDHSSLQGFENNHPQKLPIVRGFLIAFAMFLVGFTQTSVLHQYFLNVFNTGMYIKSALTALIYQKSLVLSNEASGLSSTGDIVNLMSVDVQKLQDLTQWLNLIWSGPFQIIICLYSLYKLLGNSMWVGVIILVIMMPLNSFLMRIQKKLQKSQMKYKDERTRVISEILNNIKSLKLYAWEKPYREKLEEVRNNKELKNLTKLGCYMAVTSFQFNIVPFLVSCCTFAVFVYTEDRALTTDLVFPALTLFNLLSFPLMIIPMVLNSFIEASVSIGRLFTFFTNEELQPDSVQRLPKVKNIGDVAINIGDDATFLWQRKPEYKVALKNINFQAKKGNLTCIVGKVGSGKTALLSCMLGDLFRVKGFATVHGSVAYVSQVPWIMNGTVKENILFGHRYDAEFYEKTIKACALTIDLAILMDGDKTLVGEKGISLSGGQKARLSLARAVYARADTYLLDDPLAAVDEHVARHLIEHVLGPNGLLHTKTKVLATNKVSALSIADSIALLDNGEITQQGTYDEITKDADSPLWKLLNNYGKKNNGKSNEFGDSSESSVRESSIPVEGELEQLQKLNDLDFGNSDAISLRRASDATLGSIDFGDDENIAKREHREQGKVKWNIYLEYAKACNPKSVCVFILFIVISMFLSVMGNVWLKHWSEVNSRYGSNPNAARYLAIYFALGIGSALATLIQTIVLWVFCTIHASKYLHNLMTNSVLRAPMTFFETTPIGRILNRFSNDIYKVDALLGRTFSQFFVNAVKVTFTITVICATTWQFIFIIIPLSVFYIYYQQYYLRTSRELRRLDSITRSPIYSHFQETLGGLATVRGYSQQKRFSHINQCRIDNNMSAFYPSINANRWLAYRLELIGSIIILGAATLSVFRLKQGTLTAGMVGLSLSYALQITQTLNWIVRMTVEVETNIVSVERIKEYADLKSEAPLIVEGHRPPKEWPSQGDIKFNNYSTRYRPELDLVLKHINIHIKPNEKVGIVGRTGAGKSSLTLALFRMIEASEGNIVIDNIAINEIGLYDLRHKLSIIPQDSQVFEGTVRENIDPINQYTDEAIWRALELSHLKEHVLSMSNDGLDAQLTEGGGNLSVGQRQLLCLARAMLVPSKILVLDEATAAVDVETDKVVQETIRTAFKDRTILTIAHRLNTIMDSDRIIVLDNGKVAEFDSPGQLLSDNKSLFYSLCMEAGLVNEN
T2 sequence (Q9C8G9 whole entry): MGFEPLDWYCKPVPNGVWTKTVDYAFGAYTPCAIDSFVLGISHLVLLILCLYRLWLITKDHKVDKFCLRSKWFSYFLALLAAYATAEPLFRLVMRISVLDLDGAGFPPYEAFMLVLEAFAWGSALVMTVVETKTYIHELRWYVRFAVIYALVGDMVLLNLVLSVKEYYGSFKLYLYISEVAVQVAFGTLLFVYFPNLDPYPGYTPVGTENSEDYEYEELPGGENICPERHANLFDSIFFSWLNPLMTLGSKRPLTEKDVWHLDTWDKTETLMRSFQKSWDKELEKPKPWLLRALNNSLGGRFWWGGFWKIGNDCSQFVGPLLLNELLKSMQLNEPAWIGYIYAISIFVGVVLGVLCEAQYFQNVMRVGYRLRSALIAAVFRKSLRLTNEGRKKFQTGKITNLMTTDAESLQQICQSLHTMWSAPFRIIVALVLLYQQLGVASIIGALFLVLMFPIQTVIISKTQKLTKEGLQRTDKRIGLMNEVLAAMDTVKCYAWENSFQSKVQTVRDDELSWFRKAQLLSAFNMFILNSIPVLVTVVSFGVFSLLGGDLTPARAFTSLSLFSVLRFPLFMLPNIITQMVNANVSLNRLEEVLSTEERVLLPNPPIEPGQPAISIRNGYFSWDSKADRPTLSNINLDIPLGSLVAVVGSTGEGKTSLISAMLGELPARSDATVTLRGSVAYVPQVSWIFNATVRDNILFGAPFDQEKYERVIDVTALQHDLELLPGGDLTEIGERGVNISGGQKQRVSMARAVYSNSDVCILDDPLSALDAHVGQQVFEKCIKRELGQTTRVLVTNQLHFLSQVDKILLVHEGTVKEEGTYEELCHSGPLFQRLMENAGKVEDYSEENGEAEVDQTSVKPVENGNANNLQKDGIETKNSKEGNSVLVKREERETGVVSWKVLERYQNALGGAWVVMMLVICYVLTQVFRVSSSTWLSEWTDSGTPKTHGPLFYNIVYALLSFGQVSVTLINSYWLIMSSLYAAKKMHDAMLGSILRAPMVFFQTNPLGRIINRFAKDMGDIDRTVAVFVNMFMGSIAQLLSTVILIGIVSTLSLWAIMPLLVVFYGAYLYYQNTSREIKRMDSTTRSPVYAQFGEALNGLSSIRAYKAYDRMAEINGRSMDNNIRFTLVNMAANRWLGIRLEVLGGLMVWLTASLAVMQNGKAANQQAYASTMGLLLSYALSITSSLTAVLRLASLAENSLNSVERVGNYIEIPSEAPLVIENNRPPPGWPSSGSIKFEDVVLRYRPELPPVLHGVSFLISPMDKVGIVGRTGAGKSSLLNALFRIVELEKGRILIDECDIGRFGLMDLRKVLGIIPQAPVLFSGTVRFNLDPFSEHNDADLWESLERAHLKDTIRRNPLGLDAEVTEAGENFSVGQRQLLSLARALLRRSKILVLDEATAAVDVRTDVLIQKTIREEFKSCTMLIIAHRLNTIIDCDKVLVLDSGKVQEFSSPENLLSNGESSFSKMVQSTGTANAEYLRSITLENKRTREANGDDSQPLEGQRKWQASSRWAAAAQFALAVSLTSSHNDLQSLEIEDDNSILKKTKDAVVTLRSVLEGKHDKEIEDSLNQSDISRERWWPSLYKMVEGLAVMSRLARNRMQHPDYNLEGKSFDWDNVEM
T3 sequence (Q42093 whole entry): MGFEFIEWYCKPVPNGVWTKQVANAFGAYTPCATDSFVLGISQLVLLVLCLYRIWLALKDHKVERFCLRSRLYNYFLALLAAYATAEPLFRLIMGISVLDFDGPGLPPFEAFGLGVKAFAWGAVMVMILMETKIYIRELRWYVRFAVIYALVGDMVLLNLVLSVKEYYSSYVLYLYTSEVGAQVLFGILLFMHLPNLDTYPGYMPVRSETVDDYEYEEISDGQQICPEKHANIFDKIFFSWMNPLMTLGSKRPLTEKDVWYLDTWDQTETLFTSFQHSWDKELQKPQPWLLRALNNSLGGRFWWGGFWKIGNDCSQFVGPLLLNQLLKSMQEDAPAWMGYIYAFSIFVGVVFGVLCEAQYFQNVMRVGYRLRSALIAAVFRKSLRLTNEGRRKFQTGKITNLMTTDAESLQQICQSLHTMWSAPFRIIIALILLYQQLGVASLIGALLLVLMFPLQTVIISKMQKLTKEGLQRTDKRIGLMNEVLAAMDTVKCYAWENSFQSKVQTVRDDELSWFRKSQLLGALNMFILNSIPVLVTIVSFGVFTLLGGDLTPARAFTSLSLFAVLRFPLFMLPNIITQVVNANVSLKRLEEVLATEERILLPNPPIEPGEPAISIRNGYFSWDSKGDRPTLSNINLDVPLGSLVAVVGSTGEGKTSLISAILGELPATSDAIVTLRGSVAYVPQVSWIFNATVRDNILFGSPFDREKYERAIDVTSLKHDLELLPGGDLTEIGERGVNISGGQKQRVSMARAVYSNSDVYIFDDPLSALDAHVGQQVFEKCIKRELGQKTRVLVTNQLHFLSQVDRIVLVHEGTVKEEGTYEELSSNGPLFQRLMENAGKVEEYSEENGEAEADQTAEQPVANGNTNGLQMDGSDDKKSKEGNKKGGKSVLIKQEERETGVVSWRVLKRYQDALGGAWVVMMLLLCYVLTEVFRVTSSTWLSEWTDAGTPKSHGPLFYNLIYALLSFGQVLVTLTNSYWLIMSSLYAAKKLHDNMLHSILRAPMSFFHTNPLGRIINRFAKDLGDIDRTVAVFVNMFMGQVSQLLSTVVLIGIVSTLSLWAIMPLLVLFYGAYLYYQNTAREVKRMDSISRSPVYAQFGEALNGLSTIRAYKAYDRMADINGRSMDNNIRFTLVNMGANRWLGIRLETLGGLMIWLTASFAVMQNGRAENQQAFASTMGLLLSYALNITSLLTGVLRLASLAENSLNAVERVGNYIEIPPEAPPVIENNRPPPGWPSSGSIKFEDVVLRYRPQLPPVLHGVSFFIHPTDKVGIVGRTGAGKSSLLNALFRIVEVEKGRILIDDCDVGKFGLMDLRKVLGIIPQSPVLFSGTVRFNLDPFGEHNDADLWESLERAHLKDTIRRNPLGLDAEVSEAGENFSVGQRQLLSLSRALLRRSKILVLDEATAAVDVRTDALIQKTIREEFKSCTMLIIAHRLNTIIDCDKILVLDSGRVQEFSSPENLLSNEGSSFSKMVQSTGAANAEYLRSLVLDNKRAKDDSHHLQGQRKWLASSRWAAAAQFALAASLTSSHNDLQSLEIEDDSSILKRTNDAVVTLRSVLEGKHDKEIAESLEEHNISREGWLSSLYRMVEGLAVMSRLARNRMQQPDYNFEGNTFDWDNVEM

As to `O=[N+]([O-])c1ccc(Cl)c([N+](=O)[O-])c1` [CDNB, 1-chloro-2,4-dinitrobenzene], the inhibition of growth at 40 µM with DTY165 cells (40 μM CDNB) amounted to 14%; in the experiment on DTY167 cells (40 μM CDNB), 65%. Besides, the values for the inhibition of growth at 50 µM in the experiment with DTY165 cells (50 μM CDNB) and in the experiment on DTY167 cells (50 μM CDNB) were 31% and 82%, respectively. In addition, the inhibition of growth at 60 µM was found to be 59% in the experiment with DTY165 cells (60 μM CDNB) and 85% in the experiment with DTY167 cells (60 μM CDNB). In addition, the values for the inhibition of growth at 70 µM with DTY165 cells (70 μM CDNB) and with DTY167 cells (70 μM CDNB) were 92% and 91%, respectively. The fold induction at 150 µM in [1] was determined as 2.8; in experiment [2], 1.7.

By Km is commonly meant the substrate concentration at which the rate is half of its maximum. In the case of `CCN1C(=O)CC(SC[C@H](NC(=O)CC[C@H](N)C(=O)O)C(=O)NCC(=O)O)C1=O` (stereo partly shown) [glutathione-S-N-ethylmaleimide], in experiment [3], the Michaelis constant (Km) was 500 µM.

Turning to cyanin-3-glucoside-GS [C3G-GS], the “rate of C3G-GS uptake” value on AtMRP1 is 7.9±0.7; at AtMRP2 it was 48.4±2.2 nmol/mg/10 min. Further, the “Vmax for MgATP-dependent, uncoupler-insensitive uptake” value is 45.3 ± 6.5 nmol/mg/10 min in [4] and 79.1 ± 14.7 nmol/mg/10 min in experiment [5]. For the same molecule, the Km in [4] (setting [7]) is 45.7 ± 14 µM; in experiment [5] (setting [7]) it was 39.5 ± 16.6 µM. Besides, the Km estimated previously in this system in experiment [6] is 46 µM. Further, the “Vmax of GS-X pump” value in [6] (comparison value for C3G-GS) is 45 nmol/mg/min.
